Laboratory results from ChEMBL document CHEMBL3991601, “The target landscape of clinical kinase drugs” (Science, 2017).
Activity calls are given as the source filed them. Cut-off read from the data, not from the text of the source, for most assays here: actives have a measured Kd and inactives only a lower limit.

What follows are molecules tested against T1, Breakpoint cluster region protein (Homo sapiens, UniProt P11274).
T1 sequence (P11274 whole entry): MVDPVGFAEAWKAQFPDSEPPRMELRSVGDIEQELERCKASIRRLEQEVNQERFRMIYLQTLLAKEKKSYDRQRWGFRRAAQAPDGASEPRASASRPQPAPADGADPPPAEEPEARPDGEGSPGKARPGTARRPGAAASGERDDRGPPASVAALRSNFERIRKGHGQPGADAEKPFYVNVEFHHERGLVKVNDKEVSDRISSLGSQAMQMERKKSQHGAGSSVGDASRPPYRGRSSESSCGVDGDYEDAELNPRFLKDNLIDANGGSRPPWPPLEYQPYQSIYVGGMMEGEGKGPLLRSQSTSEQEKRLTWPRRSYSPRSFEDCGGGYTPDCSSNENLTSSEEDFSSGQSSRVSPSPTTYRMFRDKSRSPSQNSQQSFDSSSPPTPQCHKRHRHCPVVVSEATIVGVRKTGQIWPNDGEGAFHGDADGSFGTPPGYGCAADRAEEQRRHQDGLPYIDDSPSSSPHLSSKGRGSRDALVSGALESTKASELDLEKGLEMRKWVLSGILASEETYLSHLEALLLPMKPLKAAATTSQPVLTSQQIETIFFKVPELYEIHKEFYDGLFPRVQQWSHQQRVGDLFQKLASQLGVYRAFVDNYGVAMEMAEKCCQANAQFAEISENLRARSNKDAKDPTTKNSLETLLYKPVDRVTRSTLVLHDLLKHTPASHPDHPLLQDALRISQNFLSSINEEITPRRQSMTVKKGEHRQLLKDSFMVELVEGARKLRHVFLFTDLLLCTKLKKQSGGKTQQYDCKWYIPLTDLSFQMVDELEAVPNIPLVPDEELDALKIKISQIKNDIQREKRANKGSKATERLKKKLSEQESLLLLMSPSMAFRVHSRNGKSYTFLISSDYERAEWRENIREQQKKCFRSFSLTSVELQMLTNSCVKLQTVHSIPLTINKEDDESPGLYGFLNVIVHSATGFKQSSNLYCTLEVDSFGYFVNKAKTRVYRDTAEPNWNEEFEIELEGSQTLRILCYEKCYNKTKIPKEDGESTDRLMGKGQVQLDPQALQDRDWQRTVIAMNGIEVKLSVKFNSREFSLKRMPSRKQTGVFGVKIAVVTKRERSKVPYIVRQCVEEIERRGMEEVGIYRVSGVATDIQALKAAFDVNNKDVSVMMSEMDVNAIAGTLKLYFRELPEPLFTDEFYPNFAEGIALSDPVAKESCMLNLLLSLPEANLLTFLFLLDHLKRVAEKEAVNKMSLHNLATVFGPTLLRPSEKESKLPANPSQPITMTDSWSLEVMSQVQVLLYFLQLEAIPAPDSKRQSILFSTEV
Note: in the data inactive means no Kd found up to 30 µM.

Compound | Kd
Cc1nc(N)sc1-c1ccnc(Nc2ccc(N3CCOCC3)cc2)n1 [CYC-116] | 8.09 µM (active)
CCc1cnn2c(NCc3ccc[n+]([O-])c3)cc(N3CCCC[C@H]3CCO)nc12 [DINACICLIB] | > 30 µM (inactive)
CN1CCN(c2ccc3nc(-c4c(N)c5c(F)cccc5[nH]c4=O)[nH]c3c2)CC1 [DOVITINIB] | 17.4 µM (active)
Cc1cc(Nc2cc(N3CCN(C)CC3)nc(/C=C/c3ccccc3)n2)n[nH]1 [ENMD-2076] | > 30 µM (inactive)
CCn1c(-c2nonc2N)nc2c(C#CC(C)(C)O)ncc(OC[C@H]3CCCNC3)c21 [GSK-690693] | > 30 µM (inactive)
COC(=O)[C@@]1(O)C[C@H]2O[C@]1(C)n1c3ccccc3c3c4c(c5c6ccccc6n2c5c31)C(=O)NC4 [K-252A] | > 30 µM (inactive)
OCCn1cc(-c2cnc3nnn(Cc4ccc5ncccc5c4)c3n2)cn1 [PF-04217903] | > 30 µM (inactive)
CN1CCC(CNc2ccc3ncc(-c4cccc(OC(F)(F)F)c4)n3n2)CC1 [SGI-1776] | > 30 µM (inactive)
O=C(Nc1cccc(Cl)c1)Nc1ncc(CCNc2ncnc3ccsc23)s1 [SNS-314] | > 30 µM (inactive)
Nc1nc(N)c2nc(-c3cccc(O)c3)c(-c3cccc(O)c3)nc2n1 [TG100-115] | > 30 µM (inactive)
COc1cc2nccc(Oc3ccc(NC(=O)Nc4cc(C)on4)c(Cl)c3)c2cc1OC [TIVOZANIB] | 0.16 µM (active)
CC(=O)Nc1cccc(-n2c(=O)n(C3CC3)c(=O)c3c(Nc4ccc(I)cc4F)n(C)c(=O)c(C)c32)c1 [TRAMETINIB] | > 30 µM (inactive)
CN1N=C(N)c2cn([C@@H]3O[C@H](COP(=O)(O)O)[C@@H](O)[C@H]3O)c3ncnc1c23 [TRICIRIBINE PHOSPHATE] | > 30 µM (inactive)

What follows are molecules tested against Dual specificity mitogen-activated protein kinase kinase 2 (Homo sapiens, UniProt P36507).
Chain of Dual specificity mitogen-activated protein kinase kinase 2 (P36507 whole entry): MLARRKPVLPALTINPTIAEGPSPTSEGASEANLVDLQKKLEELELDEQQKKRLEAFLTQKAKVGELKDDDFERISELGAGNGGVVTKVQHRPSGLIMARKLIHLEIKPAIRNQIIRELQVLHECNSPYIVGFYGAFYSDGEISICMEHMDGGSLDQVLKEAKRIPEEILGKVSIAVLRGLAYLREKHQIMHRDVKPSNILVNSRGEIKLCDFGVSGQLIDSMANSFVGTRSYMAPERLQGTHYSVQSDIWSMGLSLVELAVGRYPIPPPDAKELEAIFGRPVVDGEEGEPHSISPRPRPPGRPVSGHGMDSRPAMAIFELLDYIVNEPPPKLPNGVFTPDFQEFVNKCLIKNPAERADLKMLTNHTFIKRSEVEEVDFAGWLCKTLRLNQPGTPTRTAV

Compound | Kd
Cn1ncc(Cl)c1-c1cc(C(=O)N[C@H](CN)Cc2cccc(F)c2)sc1Cl [AFURESERTIB] | > 30 µM (inactive)
Cc1nc(N)sc1-c1ccnc(Nc2ccc(N3CCOCC3)cc2)n1 [CYC-116] | > 30 µM (inactive)
Cc1cc(Nc2cc(N3CCN(C)CC3)nc(/C=C/c3ccccc3)n2)n[nH]1 [ENMD-2076] | > 30 µM (inactive)
CN1CCC(CNc2ccc3ncc(-c4cccc(OC(F)(F)F)c4)n3n2)CC1 [SGI-1776] | > 30 µM (inactive)
COc1cc2nccc(Oc3ccc(NC(=O)Nc4cc(C)on4)c(Cl)c3)c2cc1OC [TIVOZANIB] | > 30 µM (inactive)
CN1N=C(N)c2cn([C@@H]3O[C@H](COP(=O)(O)O)[C@@H](O)[C@H]3O)c3ncnc1c23 [TRICIRIBINE PHOSPHATE] | > 30 µM (inactive)

The molecules below were run against T2, Mitogen-activated protein kinase 15 (Homo sapiens, UniProt Q8TD08).
T2 sequence (Q8TD08 whole entry): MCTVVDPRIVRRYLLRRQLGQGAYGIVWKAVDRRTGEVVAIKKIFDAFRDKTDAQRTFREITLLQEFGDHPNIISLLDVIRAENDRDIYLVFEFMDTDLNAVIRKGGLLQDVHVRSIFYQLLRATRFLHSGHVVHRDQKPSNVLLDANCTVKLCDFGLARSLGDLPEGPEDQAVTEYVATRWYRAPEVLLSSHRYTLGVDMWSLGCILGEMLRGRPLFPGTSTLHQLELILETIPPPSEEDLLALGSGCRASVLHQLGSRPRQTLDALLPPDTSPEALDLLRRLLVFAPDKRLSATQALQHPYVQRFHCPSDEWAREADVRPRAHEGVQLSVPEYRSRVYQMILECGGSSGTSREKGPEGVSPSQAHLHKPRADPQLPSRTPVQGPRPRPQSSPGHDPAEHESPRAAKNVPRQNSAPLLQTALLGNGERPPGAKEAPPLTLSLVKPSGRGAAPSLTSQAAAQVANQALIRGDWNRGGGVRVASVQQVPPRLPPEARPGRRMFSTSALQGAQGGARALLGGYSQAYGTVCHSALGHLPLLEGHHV

Compound | Kd
Cn1ncc(Cl)c1-c1cc(C(=O)N[C@H](CN)Cc2cccc(F)c2)sc1Cl [AFURESERTIB] | > 30 µM (inactive)
Cc1nc(N)sc1-c1ccnc(Nc2ccc(N3CCOCC3)cc2)n1 [CYC-116] | > 30 µM (inactive)
CCc1cnn2c(NCc3ccc[n+]([O-])c3)cc(N3CCCC[C@H]3CCO)nc12 [DINACICLIB] | > 30 µM (inactive)
Cc1cc(Nc2cc(N3CCN(C)CC3)nc(/C=C/c3ccccc3)n2)n[nH]1 [ENMD-2076] | > 30 µM (inactive)
COC(=O)[C@@]1(O)C[C@H]2O[C@]1(C)n1c3ccccc3c3c4c(c5c6ccccc6n2c5c31)C(=O)NC4 [K-252A] | 0.167 µM (active)
OCCn1cc(-c2cnc3nnn(Cc4ccc5ncccc5c4)c3n2)cn1 [PF-04217903] | > 30 µM (inactive)
CN1CCC(CNc2ccc3ncc(-c4cccc(OC(F)(F)F)c4)n3n2)CC1 [SGI-1776] | > 30 µM (inactive)
O=C(Nc1cccc(Cl)c1)Nc1ncc(CCNc2ncnc3ccsc23)s1 [SNS-314] | > 30 µM (inactive)
CC(=O)Nc1cccc(-n2c(=O)n(C3CC3)c(=O)c3c(Nc4ccc(I)cc4F)n(C)c(=O)c(C)c32)c1 [TRAMETINIB] | > 30 µM (inactive)
CN1N=C(N)c2cn([C@@H]3O[C@H](COP(=O)(O)O)[C@@H](O)[C@H]3O)c3ncnc1c23 [TRICIRIBINE PHOSPHATE] | > 30 µM (inactive)

Each molecule was assayed against Serine/threonine-protein kinase pim-1 (Homo sapiens, UniProt P11309).
Chain of Serine/threonine-protein kinase pim-1 (P11309 whole entry): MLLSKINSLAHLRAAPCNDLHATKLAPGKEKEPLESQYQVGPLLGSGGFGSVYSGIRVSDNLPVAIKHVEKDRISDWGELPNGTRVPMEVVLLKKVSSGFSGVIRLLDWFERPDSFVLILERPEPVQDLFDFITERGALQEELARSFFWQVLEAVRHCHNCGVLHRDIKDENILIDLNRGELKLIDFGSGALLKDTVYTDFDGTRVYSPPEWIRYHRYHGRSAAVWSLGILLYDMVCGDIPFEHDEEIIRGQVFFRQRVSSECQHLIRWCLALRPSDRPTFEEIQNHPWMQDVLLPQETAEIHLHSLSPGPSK

Compound | Kd
Cn1ncc(Cl)c1-c1cc(C(=O)N[C@H](CN)Cc2cccc(F)c2)sc1Cl [AFURESERTIB] | > 30 µM (inactive)
COC(=O)[C@@]1(O)C[C@H]2O[C@]1(C)n1c3ccccc3c3c4c(c5c6ccccc6n2c5c31)C(=O)NC4 [K-252A] | > 30 µM (inactive)
COc1cc2nccc(Oc3ccc(NC(=O)Nc4cc(C)on4)c(Cl)c3)c2cc1OC [TIVOZANIB] | > 30 µM (inactive)
CC(=O)Nc1cccc(-n2c(=O)n(C3CC3)c(=O)c3c(Nc4ccc(I)cc4F)n(C)c(=O)c(C)c32)c1 [TRAMETINIB] | > 30 µM (inactive)

Each molecule was assayed against 5'-AMP-activated protein kinase catalytic subunit alpha-1 (Homo sapiens, UniProt Q13131).
Chain of 5'-AMP-activated protein kinase catalytic subunit alpha-1 (Q13131 whole entry): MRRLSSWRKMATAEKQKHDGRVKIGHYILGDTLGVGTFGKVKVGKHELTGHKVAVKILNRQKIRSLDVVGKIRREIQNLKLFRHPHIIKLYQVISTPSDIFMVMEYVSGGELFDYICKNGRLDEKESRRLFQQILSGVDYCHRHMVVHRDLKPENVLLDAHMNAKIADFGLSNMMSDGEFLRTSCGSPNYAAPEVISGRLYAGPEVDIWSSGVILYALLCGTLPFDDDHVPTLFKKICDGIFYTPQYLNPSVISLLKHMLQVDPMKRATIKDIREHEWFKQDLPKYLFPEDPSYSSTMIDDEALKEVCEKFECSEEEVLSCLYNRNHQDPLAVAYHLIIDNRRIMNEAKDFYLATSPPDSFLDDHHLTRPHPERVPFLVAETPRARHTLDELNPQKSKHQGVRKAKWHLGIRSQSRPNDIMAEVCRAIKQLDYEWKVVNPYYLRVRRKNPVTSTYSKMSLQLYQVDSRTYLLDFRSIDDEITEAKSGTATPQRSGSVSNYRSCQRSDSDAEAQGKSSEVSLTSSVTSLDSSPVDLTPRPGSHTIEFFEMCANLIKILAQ

Compound | Kd
Cn1ncc(Cl)c1-c1cc(C(=O)N[C@H](CN)Cc2cccc(F)c2)sc1Cl [AFURESERTIB] | > 30 µM (inactive)
Cc1cc(Nc2cc(N3CCN(C)CC3)nc(/C=C/c3ccccc3)n2)n[nH]1 [ENMD-2076] | > 30 µM (inactive)
COC(=O)[C@@]1(O)C[C@H]2O[C@]1(C)n1c3ccccc3c3c4c(c5c6ccccc6n2c5c31)C(=O)NC4 [K-252A] | 0.461 µM (active)
CN1CCC(CNc2ccc3ncc(-c4cccc(OC(F)(F)F)c4)n3n2)CC1 [SGI-1776] | > 30 µM (inactive)
COc1cc2nccc(Oc3ccc(NC(=O)Nc4cc(C)on4)c(Cl)c3)c2cc1OC [TIVOZANIB] | > 30 µM (inactive)
CC(=O)Nc1cccc(-n2c(=O)n(C3CC3)c(=O)c3c(Nc4ccc(I)cc4F)n(C)c(=O)c(C)c32)c1 [TRAMETINIB] | > 30 µM (inactive)
CN1N=C(N)c2cn([C@@H]3O[C@H](COP(=O)(O)O)[C@@H](O)[C@H]3O)c3ncnc1c23 [TRICIRIBINE PHOSPHATE] | > 30 µM (inactive)

These molecules were tested against Protein-tyrosine kinase 2-beta (Homo sapiens, UniProt Q14289).
Chain of Protein-tyrosine kinase 2-beta (Q14289 whole entry): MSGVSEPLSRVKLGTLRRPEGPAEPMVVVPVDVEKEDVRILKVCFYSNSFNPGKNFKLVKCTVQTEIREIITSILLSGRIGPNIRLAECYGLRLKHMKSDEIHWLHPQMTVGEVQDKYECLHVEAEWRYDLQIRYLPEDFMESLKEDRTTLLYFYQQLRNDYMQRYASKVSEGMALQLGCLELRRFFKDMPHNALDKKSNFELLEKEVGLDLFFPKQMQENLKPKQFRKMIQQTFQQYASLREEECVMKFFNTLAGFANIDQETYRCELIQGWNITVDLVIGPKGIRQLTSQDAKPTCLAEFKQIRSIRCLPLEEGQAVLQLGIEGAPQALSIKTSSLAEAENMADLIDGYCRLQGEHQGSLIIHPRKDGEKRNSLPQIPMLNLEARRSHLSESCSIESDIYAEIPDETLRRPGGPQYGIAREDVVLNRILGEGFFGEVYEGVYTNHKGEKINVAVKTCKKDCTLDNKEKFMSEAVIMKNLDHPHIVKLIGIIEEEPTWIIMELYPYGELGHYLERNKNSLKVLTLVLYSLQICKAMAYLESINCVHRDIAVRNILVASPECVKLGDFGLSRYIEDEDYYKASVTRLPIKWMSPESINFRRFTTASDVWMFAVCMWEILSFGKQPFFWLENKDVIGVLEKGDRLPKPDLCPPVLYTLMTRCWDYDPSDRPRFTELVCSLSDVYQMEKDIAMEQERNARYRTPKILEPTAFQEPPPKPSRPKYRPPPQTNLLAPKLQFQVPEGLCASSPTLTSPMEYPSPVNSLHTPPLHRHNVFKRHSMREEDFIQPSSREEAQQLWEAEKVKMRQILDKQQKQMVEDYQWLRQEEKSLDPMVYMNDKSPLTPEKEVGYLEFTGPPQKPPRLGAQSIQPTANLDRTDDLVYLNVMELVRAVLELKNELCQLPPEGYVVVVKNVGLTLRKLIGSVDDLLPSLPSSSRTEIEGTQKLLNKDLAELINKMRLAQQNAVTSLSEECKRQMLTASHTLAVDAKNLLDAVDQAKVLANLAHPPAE

Compound | Kd
Cn1ncc(Cl)c1-c1cc(C(=O)N[C@H](CN)Cc2cccc(F)c2)sc1Cl [AFURESERTIB] | > 30 µM (inactive)
CCc1cnn2c(NCc3ccc[n+]([O-])c3)cc(N3CCCC[C@H]3CCO)nc12 [DINACICLIB] | > 30 µM (inactive)
Cc1cc(Nc2cc(N3CCN(C)CC3)nc(/C=C/c3ccccc3)n2)n[nH]1 [ENMD-2076] | > 30 µM (inactive)
COC(=O)[C@@]1(O)C[C@H]2O[C@]1(C)n1c3ccccc3c3c4c(c5c6ccccc6n2c5c31)C(=O)NC4 [K-252A] | 1.36 µM (active)
OCCn1cc(-c2cnc3nnn(Cc4ccc5ncccc5c4)c3n2)cn1 [PF-04217903] | > 30 µM (inactive)
CN1CCC(CNc2ccc3ncc(-c4cccc(OC(F)(F)F)c4)n3n2)CC1 [SGI-1776] | > 30 µM (inactive)
O=C(Nc1cccc(Cl)c1)Nc1ncc(CCNc2ncnc3ccsc23)s1 [SNS-314] | > 30 µM (inactive)
COc1cc2nccc(Oc3ccc(NC(=O)Nc4cc(C)on4)c(Cl)c3)c2cc1OC [TIVOZANIB] | > 30 µM (inactive)
CC(=O)Nc1cccc(-n2c(=O)n(C3CC3)c(=O)c3c(Nc4ccc(I)cc4F)n(C)c(=O)c(C)c32)c1 [TRAMETINIB] | > 30 µM (inactive)
CN1N=C(N)c2cn([C@@H]3O[C@H](COP(=O)(O)O)[C@@H](O)[C@H]3O)c3ncnc1c23 [TRICIRIBINE PHOSPHATE] | > 30 µM (inactive)

These molecules were tested against Activated CDC42 kinase 1 (Homo sapiens, UniProt Q07912).
Chain of Activated CDC42 kinase 1 (Q07912 whole entry): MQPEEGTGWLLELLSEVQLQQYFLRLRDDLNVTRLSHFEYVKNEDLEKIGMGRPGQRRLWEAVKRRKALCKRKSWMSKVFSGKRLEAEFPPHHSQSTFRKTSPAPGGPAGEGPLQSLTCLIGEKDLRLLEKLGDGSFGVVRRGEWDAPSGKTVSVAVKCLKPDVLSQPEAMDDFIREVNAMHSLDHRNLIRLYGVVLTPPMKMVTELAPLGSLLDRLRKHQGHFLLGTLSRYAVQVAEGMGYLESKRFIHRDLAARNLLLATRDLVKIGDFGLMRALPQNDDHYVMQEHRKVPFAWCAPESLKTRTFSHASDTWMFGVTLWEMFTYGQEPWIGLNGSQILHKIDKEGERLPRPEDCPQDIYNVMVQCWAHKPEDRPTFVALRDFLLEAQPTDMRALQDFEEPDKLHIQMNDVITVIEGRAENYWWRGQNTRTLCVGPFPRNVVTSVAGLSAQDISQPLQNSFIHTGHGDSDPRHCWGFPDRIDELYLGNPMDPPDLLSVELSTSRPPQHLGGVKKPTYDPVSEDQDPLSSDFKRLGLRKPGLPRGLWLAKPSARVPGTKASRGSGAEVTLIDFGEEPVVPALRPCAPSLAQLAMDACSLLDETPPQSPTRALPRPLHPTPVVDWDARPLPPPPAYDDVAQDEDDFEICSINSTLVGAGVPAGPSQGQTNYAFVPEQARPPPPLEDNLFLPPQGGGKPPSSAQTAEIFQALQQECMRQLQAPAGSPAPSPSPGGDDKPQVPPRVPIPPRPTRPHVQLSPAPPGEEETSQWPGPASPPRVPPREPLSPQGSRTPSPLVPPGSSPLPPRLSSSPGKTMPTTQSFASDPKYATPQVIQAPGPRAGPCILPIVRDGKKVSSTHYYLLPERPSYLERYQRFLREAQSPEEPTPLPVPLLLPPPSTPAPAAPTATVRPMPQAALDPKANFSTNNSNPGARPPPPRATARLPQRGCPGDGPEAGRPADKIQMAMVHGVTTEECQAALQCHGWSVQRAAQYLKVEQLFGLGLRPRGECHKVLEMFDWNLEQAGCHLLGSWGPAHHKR

Compound | Kd
Cn1ncc(Cl)c1-c1cc(C(=O)N[C@H](CN)Cc2cccc(F)c2)sc1Cl [AFURESERTIB] | > 30 µM (inactive)
CN1CCC(CNc2ccc3ncc(-c4cccc(OC(F)(F)F)c4)n3n2)CC1 [SGI-1776] | > 30 µM (inactive)
COc1cc2nccc(Oc3ccc(NC(=O)Nc4cc(C)on4)c(Cl)c3)c2cc1OC [TIVOZANIB] | > 30 µM (inactive)
CC(=O)Nc1cccc(-n2c(=O)n(C3CC3)c(=O)c3c(Nc4ccc(I)cc4F)n(C)c(=O)c(C)c32)c1 [TRAMETINIB] | > 30 µM (inactive)
CN1N=C(N)c2cn([C@@H]3O[C@H](COP(=O)(O)O)[C@@H](O)[C@H]3O)c3ncnc1c23 [TRICIRIBINE PHOSPHATE] | > 30 µM (inactive)
